This is an account of results in patent publication US20050054696A1, “Indole compounds and medicinal use thereof” (priority 2001, published 2005).

For orientation: IC50 means the concentration at which inhibition is half-maximal.

In the experiment the target is T1, recombinant human liver glycogen phosphorylase (HLGPa) (Homo sapiens, UniProt P06737).
T1 construct: made in house; host or cells: Sf9 insect cells (unpurified cell lysate used as enzyme solution)
T1 sequence (P06737 1-847): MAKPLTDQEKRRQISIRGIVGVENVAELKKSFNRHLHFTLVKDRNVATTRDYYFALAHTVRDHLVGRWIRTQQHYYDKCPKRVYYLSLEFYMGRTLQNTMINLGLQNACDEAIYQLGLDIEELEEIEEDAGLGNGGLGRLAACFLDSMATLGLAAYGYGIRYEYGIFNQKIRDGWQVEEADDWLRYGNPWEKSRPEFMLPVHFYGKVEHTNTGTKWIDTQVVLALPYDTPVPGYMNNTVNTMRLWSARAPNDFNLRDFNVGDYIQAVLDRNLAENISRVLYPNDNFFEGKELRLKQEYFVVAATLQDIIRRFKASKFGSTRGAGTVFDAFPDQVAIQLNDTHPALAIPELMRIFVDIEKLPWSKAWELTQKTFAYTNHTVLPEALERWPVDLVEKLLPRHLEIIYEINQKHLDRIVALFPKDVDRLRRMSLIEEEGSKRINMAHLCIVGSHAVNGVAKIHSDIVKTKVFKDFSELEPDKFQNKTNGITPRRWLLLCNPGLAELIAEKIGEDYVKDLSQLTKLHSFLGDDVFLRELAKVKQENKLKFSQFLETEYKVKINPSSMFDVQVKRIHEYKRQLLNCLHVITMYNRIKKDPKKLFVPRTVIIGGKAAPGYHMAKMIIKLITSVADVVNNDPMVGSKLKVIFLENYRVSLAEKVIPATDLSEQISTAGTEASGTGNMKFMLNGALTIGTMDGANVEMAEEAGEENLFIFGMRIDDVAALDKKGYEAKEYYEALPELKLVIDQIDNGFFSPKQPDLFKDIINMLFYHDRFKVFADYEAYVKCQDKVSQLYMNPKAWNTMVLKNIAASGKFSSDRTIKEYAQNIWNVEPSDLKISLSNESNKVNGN
Description: Measurement of liver glycogen phosphorylase activity (enzyme inhibitory activity against HLGPa). To be noted: Sf9 cell lysate expressing recombinant enzyme; reverse reaction (glycogen synthesis from G1-P), phosphate by malachite green, 60 min room temperature. The experiment is classed as biochemical. In short, it runs like this: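 Activity was run in the reverse, glycogen-synthesis direction, using Sf9 lysate expressing recombinant human liver glycogen phosphorylase (enzyme solution 80 μg/mL protein, pH 7.0). Substrate solution was Tris pH 7.2 with 1.25 mM glucose-1-phosphate, 2.5 mg/ml glycogen and 7.5 mM glucose, reacted 60 min at room temperature. Released phosphate was measured by malachite green A650, with % inhibition taken against DMSO control and no-enzyme blank.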
In the case of `Cc1cccc(C(=O)NNC(=O)c2cc3cc(Cl)ccc3[nH]2)c1N` [Example 1-99, 2-amino-3-methylbenzoic acid 2-(5-chloro-1H-indole-2-carbonyl)hydrazide], the IC50 worked out at 10 nM.

Consider `N=C(NNC(=O)c1cc2cc(Cl)ccc2[nH]1)c1ccc(F)c(F)c1` [Example 6-23, 5-chloro-1H-indole-2-carboxylic acid 2-((3,4-difluorophenyl)-imino-methyl)hydrazide methanesulfonate], for which the IC50 came to 67 nM. As for `CN(C)C(=O)COc1ccccc1C(=O)NNC(=O)c1cc2cc(Cl)ccc2[nH]1` [Example 1-52, 2-(2-(5-chloro-1H-indole-2-carbonyl)hydrazinocarbonyl)phenoxy-N,N-dimethylacetamide], the figure is 91 nM; as for `O=C(NNC(=O)c1cc2cc(Cl)ccc2[nH]1)Nc1ccc(F)cc1` [Example 5-7, 5-chloro-1H-indole-2-carboxylic acid 2-((4-fluorophenyl)aminocarbonyl)hydrazide], 88 nM. To `Cc1ccc2[nH]c(C(=O)NN3C(=O)CCN(c4ccccc4)C3=O)cc2c1` [Example 3-10, 5-methyl-1H-indole-2-carboxylic acid (2,4-dioxo-1-phenyl-perhydropyrimidin-3-yl)amide] belongs 440 nM. As for `O=C(NNC(=O)c1cccc2ccccc12)c1cc2cc(Cl)ccc2[nH]1` [Example 1-92, 5-chloro-1H-indole-2-carboxylic acid 2-(naphthalene-1-carbonyl)hydrazide], the figure is 71 nM.

`N=C(NNC(=O)c1cc2cc(Cl)ccc2[nH]1)c1ccc(F)cc1` [Example 1-128, 5-chloro-1H-indole-2-carboxylic acid 2-((4-fluorophenyl)-imino-methyl)hydrazide]: the IC50 was 33 nM. To `O=C(NN1C(=O)N[C@@H](c2ccc(O)cc2)C1=O)c1cc2cc(Cl)ccc2[nH]1` [Example 4-18, 5-chloro-1H-indole-2-carboxylic acid ((4S)-2,5-dioxo-4-(4-hydroxyphenyl)imidazolidin-1-yl)amide] belongs 75 nM; to `O=C(NNC(=O)C1(c2ccccc2)CCCCC1)c1cc2cc(Cl)ccc2[nH]1` [Example 5-14, 5-chloro-1H-indole-2-carboxylic acid 2-((1-phenylcyclohexane)carbonyl)hydrazide], 300 nM; to `O=C(NNC(=O)c1cc2cc(Cl)ccc2[nH]1)c1ccncc1` [Example 1-42, isonicotinic acid 2-(5-chloro-1H-indole-2-carbonyl)hydrazide], 260 nM. Consider `O=C(NNC(=O)c1cc2ccc(Cl)cc2[nH]1)c1ccccc1` [Example 1-124, benzoic acid 2-(6-chloro-1H-indole-2-carbonyl)hydrazide], for which the IC50 is greater than 100 nM. Take `O=C(NN1C(=O)N[C@@H](Cc2ccccc2)C1=O)c1cc2cc(Cl)ccc2[nH]1` [Example 4-9, 5-chloro-1H-indole-2-carboxylic acid ((4S)-4-benzyl-2,5-dioxoimidazolidin-1-yl)amide]: the concentration for half-maximal inhibition (IC50) was greater than 100 nM. Regarding `O=C(Nn1c(=O)[nH]c2ccccc2c1=O)c1cc2cc(Cl)ccc2[nH]1` [Example 2, N-(1,2,3,4-tetrahydro-2,4-dioxoquinazolin-3-yl)-5-chloro-1H-indole-2-carboxamide], the half-maximal inhibitory concentration (IC50) was determined as 16 nM. To `Nc1ccccc1C(=O)NNC(=O)c1cc2cc(Br)ccc2[nH]1` [Example 1-102, 2-aminobenzoic acid 2-(5-bromo-1H-indole-2-carbonyl)hydrazide] belongs greater than 100 nM. As for `Cc1ccc2[nH]c(C(=O)Nn3c(=O)[nH]c4cc(F)c(F)cc4c3=O)cc2c1` [Example 2-26, 5-methyl-1H-indole-2-carboxylic acid (6,7-difluoro-1,2,3,4-tetrahydro-2,4-dioxoquinazolin-3-yl)amide], the figure is 210 nM. As for `O=C(Nc1ccccc1C(=O)NNC(=O)c1cc2cc(Cl)ccc2[nH]1)Oc1ccccc1` [Example 1-109, phenyl (2-(2-(5-chloro-1H-indole-2-carbonyl)hydrazinocarbonyl)phenyl)carbamate], the figure is 140 nM; as for `Nc1ccccc1C(=O)NNC(=O)c1cc2cc(F)ccc2[nH]1` [Example 1-38, 2-aminobenzoic acid 2-(5-fluoro-1H-indole-2-carbonyl)hydrazide], greater than 100 nM; as for `O=C(NNC(=O)c1cc2cc(Cl)ccc2[nH]1)c1ccc(F)cc1` [Example 1-29, 4-fluorobenzoic acid 2-(5-chloro-1H-indole-2-carbonyl)hydrazide], 15 nM. For the molecule `N[C@H](C(=O)NNC(=O)c1cc2cc(Cl)ccc2[nH]1)c1ccccc1` [Example 5-18, 5-chloro-1H-indole-2-carboxylic acid 2-((2S)-2-amino-2-phenylacetyl)hydrazide], the concentration for half-maximal inhibition (IC50) is greater than 100 nM. As for `CCCn1c(=O)n(NC(=O)c2cc3cc(Cl)ccc3[nH]2)c(=O)c2ccccc21` [Example 2-30, 5-chloro-1H-indole-2-carboxylic acid (1,2,3,4-tetrahydro-2,4-dioxo-1-propylquinazolin-3-yl)amide], the figure is 88 nM. To `O=C(O)COc1ccccc1C(=O)NNC(=O)c1cc2cc(Cl)ccc2[nH]1` [Example 1-50, 2-(2-(2-(5-chloro-1H-indole-2-carbonyl)hydrazinocarbonyl)phenoxy)acetic acid] belongs 27 nM. As for `CC(C)c1ccc2[nH]c(C(=O)Nn3c(=O)[nH]c4cc(F)ccc4c3=O)cc2c1` [Example 2-10, 5-isopropyl-1H-indole-2-carboxylic acid (7-fluoro-1,2,3,4-tetrahydro-2,4-dioxoquinazolin-3-yl)amide], the figure is greater than 100 nM. On to `O=C(NNC(=O)c1cc2cc(Cl)ccc2[nH]1)c1ccsc1` [Example 1-83, thiophene-3-carboxylic acid 2-(5-chloro-1H-indole-2-carbonyl)hydrazide], for which the IC50 turned out to be 880 nM.

For the molecule `O=C(NNC(=O)c1cc2cc(Cl)ccc2[nH]1)c1ccc(Cl)cc1` [Example 1-21, 4-chlorobenzoic acid 2-(5-chloro-1H-indole-2-carbonyl)hydrazide], the IC50 is 49 nM. To `CCc1ccc2[nH]c(C(=O)NNC(=O)c3ccccc3N)cc2c1` [Example 1-66, 2-aminobenzoic acid 2-(5-ethyl-1H-indole-2-carbonyl)hydrazide] belongs greater than 100 nM; to `Nc1ccc2[nH]c(=O)n(NC(=O)c3cc4cc(Cl)ccc4[nH]3)c(=O)c2c1` [Example 2-16, 5-chloro-1H-indole-2-carboxylic acid (6-amino-1,2,3,4-tetrahydro-2,4-dioxoquinazolin-3-yl)amide], 110 nM. Turning to `COc1ccc([C@H]2NC(=O)N(NC(=O)c3cc4cc(Cl)ccc4[nH]3)C2=O)cc1` [Example 4-20, 5-chloro-1H-indole-2-carboxylic acid ((4R)-2,5-dioxo-4-(4-methoxyphenyl)imidazolidin-1-yl)amide], the IC50 was 170 nM. As for `N=C(NNC(=O)c1cc2cc(Cl)ccc2[nH]1)c1cccc(F)c1` [Example 1-132, 5-chloro-1H-indole-2-carboxylic acid 2-((3-fluorophenyl)-imino-methyl)hydrazide], the figure is 110 nM; as for `O=C(Nn1c(=O)[nH]c2c(Cl)cccc2c1=O)c1cc2cc(Cl)ccc2[nH]1` [Example 2-20, 5-chloro-1H-indole-2-carboxylic acid (8-chloro-1,2,3,4-tetrahydro-2,4-dioxoquinazolin-3-yl)amide], 22 nM; as for `Nc1cccc(Cl)c1C(=O)NNC(=O)c1cc2cc(Cl)ccc2[nH]1` [Example 1-55, 2-amino-6-chlorobenzoic acid 2-(5-chloro-1H-indole-2-carbonyl)hydrazide], 87 nM. `CNc1ccccc1C(=O)NNC(=O)c1cc2cc(Cl)ccc2[nH]1` [Example 1-53, 2-methylaminobenzoic acid 2-(5-chloro-1H-indole-2-carbonyl)hydrazide]: the IC50 came to 230 nM.

As to `O=C(NNC(=O)c1ccc(F)cc1F)c1cc2cc(Cl)ccc2[nH]1` [Example 1-26, 2,4-difluorobenzoic acid 2-(5-chloro-1H-indole-2-carbonyl)hydrazide], the concentration for half-maximal inhibition (IC50) is 18 nM. Regarding `CC(C)c1ccc2[nH]c(C(=O)NNC(=O)c3ccc(F)cc3N)cc2c1` [Example 1-37, 2-amino-4-fluorobenzoic acid 2-(5-isopropyl-1H-indole-2-carbonyl)hydrazide], the IC50 was greater than 100 nM. As for `O=C(NNC(=O)c1cc2ccsc2[nH]1)c1cc2cc(Cl)ccc2[nH]1` [Example 1-125, 6H-thieno[2,3-b]pyrrole-5-carboxylic acid 2-(5-chloro-1H-indole-2-carbonyl)hydrazide], the figure is 190 nM.
